The numbers were not newly measured in US7767881B2, “Utilization of histamine receptor h3 gene participating in body weight or food intake control” (priority 2001, dated 2010), which cites them from elsewhere.

Data set [1] deals with mice.
The conditions of data set [2]: experimental epilepsy model.
The subject of data set [3] is senescence-accelerated mice. The following applies: senescence-accelerated mice with learning disabilities.
Data set [4] has as its system mice. This is another data set of the same source.
Data set [5] concerns mice. The source holds these as a separate data set.

For `Clc1cccc(Cl)c1NC1=NCCN1` [clinidine], the “histamine neuron metabolic turnover” value with histamine neuron is “reduce histamine neuron metabolic turnover”.

For `O=C1CC2(CCCC2)CC(=O)N1CCCCN1CCN(c2ncccn2)CC1` [buspirone], the “histamine neuron metabolic turnover” value in the data set with histamine neuron is “reduce histamine neuron metabolic turnover”.

Regarding `S=C(NC1CCCCC1)N1CCC(c2cnc[nH]2)CC1` [thioperamide], the anxiety result with mice [1] is given as “anxiety-inducing effects”. Besides, the waking entry with cats (effect antagonized by RAMH) is on record as “waking effects were observed”. In the data set on cats (given against RAMH), the “effect on RAMH-induced increase in deep slow-wave sleep” value is “reversed”. Besides, the electroconvulsion entry in data set [2] is given as “suppressed”. Moreover, the learning entry in data set [3] is given as “improving learning”. Also, the analgesia result with mice [4] (due to stimulation of the histamine receptor H1 protein, antagonized by RAMH) is “attenuation of analgesia”.

As to `C[C@@H](N)Cc1c[nH]cn1` [RAMH, R-α-methylhistamine], the deep slow-wave sleep entry in the data set on cats (administration of the agonist) is given as “significant increase in deep slow-wave sleep”. Besides, the voluntary movement result with mice [5] and with rats was “decreases voluntary movement” in each case.

In the case of `CCCN(CCC)C1CCc2cccc(O)c2C1` (centres unmarked) [8-OH-DPAT], in the data set with histamine neuron, the “histamine neuron metabolic turnover” value is “reduce histamine neuron metabolic turnover”.

As for `NCCc1c[nH]cn1` [histamine], in the data set with mice [4] (mice, intracerebral administration), the analgesic/algesic action entry is “analgesic and/or algesic action, depending on the dose”.

On to `NC(=NCc1ccc(Cl)cc1)SCCCc1cnc[nH]1` [Clobenpropit], for which, in data set [2], the electroconvulsion result was “suppressed”.
